Measurements published in patent US20230416307A1, “[…] PEPTIDES FOR ENHANCING VIRAL PRODUCTION” (Synvivia, Inc., priority 2022, published 2023).
Ends that are not written are not given here.

How the values were obtained:
AAV2-GFP = experiment: Transduction efficiency (TU:VG ratio) of AAV2-GFP packaged in cells expressing a CP; type: cell-based, adeno-associated virus; conditions: for transduction efficiency of AAV2-GFP produced in the presence of CP: FIG. 23, CP plasmid 0.3 ng to 100 ng, versus control without CP
From the text: AAV2-GFP were harvested and assayed for biological and physical titer as described in FIG. 20
FIG. 24. […] This figure depicts the raw flow cytometry data used to determine the biological titer of AAV samples. This is an example of the data that was used to determine the biological titers in FIG. 23. The X-axis of each graph represents the forward light scattering (FSC) from flow cytometry. The Y-axis represents the GFP intensity of each cell. A 1000-fold dilution of AAV2-GFP particles produced either in the presence (A) or absence (B) of cyclic peptide were used to transduce HEK293 cells. A 1000-fold dilution of the preparation was used (e.g., without physical titer normalization) to ensure a direct, batch-to-batch comparison of the impact of cyclic peptide on viral packaging performance.
As used herein, the term “transduction efficiency” refers to the effectiveness (efficiency) of viral particles in delivering their genetic payload to the target cells. This efficiency may be represented by the transducing units to vector genomes ratio (TU:VG). Viral formulations with enhanced transduction efficiency can achieve greater numbers of DNA delivery events for the same number of DNA-containing viral particles. […] Enhanced transduction efficiency may be achieved by optimizing the cellular environment for viral production, leading to viral particles with improved capsid structure, viral particle biochemistry, or viral particle assembly. Increasing transduction efficiency refers to improvements in the TU:VG ratio, which encompasses both infectivity and biological titer.
• 1. A 100-mm cell culture dish was reseeded with 4.0×10^6 Hek293T cells in high glucose DMEM culture medium supplemented with 10% FBS. • 2. […] A jetOPTIMUS DNA transfection reagent i used during the transfection protocol (from Polyplus). • 3. 12-16 hours after transfection, media was replaced with low glucose DMEM culture medium supplemented with 1% FBS, 1×Glutamax, 10 mM HEPES, and 0.075% sodium bicarbonate. • 4. Cells and media were harvested 4 days after transfection and frozen in 1 mL aliquots. • 5. Frozen aliquots were thawed and lysed using AAVMax Lysis Reagent (Life Technologies, USA, A50520). 100 uL of AAVMax Lysis buffer was added to 900 uL of cell and media. Mixture was incubated for 2 hours with rotating. Debris was pelleted at 5,000xg for 15 minutes. AAV containing supernatant was collected. • 6. The physical and biological titers of the harvested AAV samples were determined by qPCR and biological viral titer measurement as described in Example 1.
Full, but non-functional viral particles represent a major manufacturing challenge for AAV gene therapies. At present, there is no process capable of purifying the functional viral particles from the full, but non-functional fraction.

Lentivirus [1] = experiment: Lentivirus biological titer (flow cytometry of transduced HEK293 cells) after packaging with a CP generator plasmid; type: cell-based; conditions: for lentiviral biological (transduction unit) titer, fold difference to control: FIG. 25, generator plasmid 0.5, 5, 50 ng, HEK293 cells
Procedure: (§1) Cyclic peptides are used herein to improve viral titer and transduction efficiency during lentiviral production. Lentivirus was produced using Takara Bio lentivirus packaging kit either with (left panels) or without (right panels; bars labeled CTRL) a cyclic peptide generator plasmid. The cyclic peptides produced by different amounts (e.g., 0.5 ng, 5 ng and 50 ng) of corresponding generator plasmids were CSSLT (SEQ ID NO: 37), CGSTKS (SEQ ID NO: 43), CKYEE (SEQ ID NO: 40), CPYTD (SEQ ID NO: 44), CPLQVP (SEQ ID NO: 45). 5 ng plasmid experiment for CGSTKS (SEQ ID NO: 43) failed and is not shown. The virus was collected, and particle titers were enumerated using Takara Bio Lenti-X GoStix Plus quantitative lentiviral titer test. The biological titer was determined by transducing fresh HEK293 cells with the various lentiviral preparations (e.g., packaged with or without a cyclic peptide). The fold difference in particle titer and transduction unit titer is calculated by normalizing to the average of six control lentiviral transductions from packaging runs without cyclic peptide. The control (CTRL) conditions illustrate negligible noise.
FIG. 26. Exemplary representative flow cytometry raw data illustrating that when cyclic peptide CGSTKS (SEQ ID NO: 43) is present during lentiviral production, the biological titer increases by over 8-fold compared to when the cyclic peptide is absent. This figure depicts the raw flow cytometry data used to determine the biological titer of lentiviral samples. This is an example of the data that was used to determine the lentiviral biological titers in FIG. 25. The X-axis of each graph represents the forward light scattering (FSC) from flow cytometry. The Y-axis represents the GFP intensity of each cell. A 100-fold dilution of Lentivirus with a GFP payload produced either in the presence (A) or absence (B) of cyclic peptide were used to transduce HEK293 cells. A 100-fold dilution of the preparation was used (e.g., without physical titer normalization) to ensure a direct, batch-to-batch comparison of the impact of the cyclic peptide on viral packaging performance. • Part A—Flow cytometry raw data (with minor forward and side scatter gating to remove irrelevant particles) of HEK293 transduced with a lentiviral preparation produced in the presence of cyclic peptide CGSTKS (SEQ ID NO: 43) generated from a plasmid constructed transduced into packaging cells at 0.5 ng. • Part B—Flow cytometry raw data (with minor forward and side scatter gating to remove irrelevant particles) of HEK293 transduced with a lentiviral preparation produced without cyclic peptide.
This example illustrates methodologies for Cyclic peptide-enhanced lentiviral vector production. • 1) Cells were seeded at 4-5×10^6 cells per 10-cm plate, 24 hours prior to transfection, to achieve 80-90% confluence at the time of transfection. • 2) 7.0 μg of lentiviral vector plasmid DNA was diluted in sterile water to a volume of 600 μl along with a cyclic peptide generator that expresses a cyclic peptide. • 3) Titration of cyclic peptide plasmid DNA concentrations, from 0.5 ng to 50 ng, was used in this Example. […]

Lentivirus [2] = experiment: Lentivirus particle (physical) titer by Lenti-X GoStix Plus after packaging with a CP generator plasmid; type: cell-based; conditions: FIG. 25; generator plasmid 0.5, 5, 50 ng; normalised to six no-CP controls
Procedure: as §1
This example illustrates methodologies for Cyclic peptide-enhanced lentiviral vector production. • 1) Cells were seeded at 4-5×10^6 cells per 10-cm plate, 24 hours prior to transfection, to achieve 80-90% confluence at the time of transfection. • 2) 7.0 μg of lentiviral vector plasmid DNA was diluted in sterile water to a volume of 600 μl along with a cyclic peptide generator that expresses a cyclic peptide. • 3) Titration of cyclic peptide plasmid DNA concentrations, from 0.5 ng to 50 ng, was used in this Example. However, the amount of required plasmid DNA depends on many factors, including the specific cyclic peptide being expressed, the cyclic peptide generator (e.g. more efficient cyclic peptide generators may need less DNA), and promoter strength (the pCMV promoter driving strong expression is used in this Example). • 4) Between 4-8 control conditions (depending on number of experimental conditions) were also prepared that are identical to the above, except that no cyclic peptide plasmid was added. • 5) This DNA was added to a tube of Lenti-X Packaging Single Shots and vortexed to mix. • 6) The mixture was incubated for 10 minutes at room temperature to allow the formation of nanoparticle complexes, then briefly centrifuged. • 7) The entire 600 μl of nanoparticle complex solution was added dropwise to the packaging cells, which were then rocked gently to mix. • 8) Lentiviral packaging. […] They were centrifuged or filtered to remove cellular debris, using a filter of cellulose acetate or polysulfone, not nitrocellulose. • 10) Virus production was verified and can be quantified using Lenti-X GoStix™ Plus or any other standard methodology. Then, the virus can be used to transduce target cells or stored at −80° C. • 11) Next, for each viral production condition (e.g., different cyclic peptide packaging conditions, CP dosages, and controls), a three order of magnitude serial dilution at 10-fold dilution steps was performed. • 12) All viral samples were then transduced, harboring a GFP transgene, into fresh HEK293 cells. • 13) After 3 days, the transduced cells were collected, and analyzed them by flow cytometry (see FIG. 26). • 14) Finally, the biological titer (flow cytometry) and physical titer (GoStix) were normalized to the no-CP control to determine the fold improvements in both viral titer and infectiousness. […]

| Substance | transduction efficiency of AAV2-GFP produced in the presence of CP (AAV2-GFP) | lentiviral biological (transduction unit) titer, fold difference to control (Lentivirus [1]) | lentiviral physical (particle) titer, fold difference to control (Lentivirus [2]) | increased transduction efficiency (TU:VG ratio) (AAV2-GFP; FIG. 21 legend, data not shown) [×] | increase of lentiviral biological titer (Lentivirus [1]; FIG. 26, generator plasmid at 0.5 ng, 100-fold dilution on HEK293 cells, versus no CP) |
| --- | --- | --- | --- | --- | --- |
| CQVFQL: engineered cyclic peptide, SEQ ID NO: 42 (also: cyclic, closure not given here) | improvements in transduction efficiency |  |  |  |  |
| CKYEE: engineered cyclic peptide, SEQ ID NO: 40 (also: cyclic, closure not given here) | improvements in transduction efficiency | unexpected degree of improvement | unexpected degree of improvement |  |  |
| CTHKVS: engineered cyclic peptide, SEQ ID NO: 38 (also: cyclic, closure not given here) | improvements in transduction efficiency |  |  |  |  |
| CPYTD: engineered cyclic peptide, SEQ ID NO: 44 (also: cyclic, closure not given here) |  | unexpected degree of improvement | unexpected degree of improvement |  |  |
| CPLQVP: engineered cyclic peptide, SEQ ID NO: 45 (also: cyclic, closure not given here) |  | unexpected degree of improvement | unexpected degree of improvement |  |  |
| CSSLT: engineered cyclic peptide, SEQ ID NO: 37 (also: cyclic, closure not given here) | improvements in transduction efficiency | unexpected degree of improvement | unexpected degree of improvement |  |  |
| CRVSY: engineered cyclic peptide, SEQ ID NO: 41 (also: cyclic, closure not given here) | improvements in transduction efficiency |  |  |  |  |
| CYNHAR: engineered cyclic peptide, SEQ ID NO: 35, corresponds to generator plasmid T2851-8 (cyclic; Cyclic peptide that was found to increase or decrease AAV viral titer in a dose-responsive manner.) |  |  |  | ~2.4 |  |
| CGSTKS: engineered cyclic peptide, SEQ ID NO: 43 (also: cyclic, closure not given here) |  | unexpected degree of improvement | unexpected degree of improvement |  | over 8 fold |
| CCRPH: engineered cyclic peptide, printed as SEQ ID NO: 37 | improvements in transduction efficiency |  |  |  |  |
